Measurements from patent publication US20250074894A1, “NITROPHENYL-ACRYLAMIDES AND USES THEREOF” (BROWN UNIVERSITY, priority 2021, published 2025).

Key:
Hela cells = conditions: cited from earlier work
[1] = system: Patient derived DIPG cells; assay: DIPG cell invasion (Incucyte Cell Imager); type: cell-based, human; conditions: 10 μM, 72 hours, vs DMSO, p<0.05
Description: Patient derived DIPG cells were incubated with 10 μM Compound 31 or DMSO (control) for 72 hours and DIPG invasion into the surrounding extracellular matrix was quantified in real time using Incucyte Cell Imager.

[2] = system: Patient derived glioma stem cells (GSCs); assay: GSC invasion live imaging (Incucyte); type: cell-based, human; conditions: vs DMSO
Description: GSCs in Matrigel 3D matrix, were treated with 40 µM entacapone or DMSO (control) and live imaging was performed in regular time intervals using the Incucyte live cell imaging system. Normalized area of invasion was quantified following normalization of the invading area with the area occupied by the GSC sphere.
Patient derived glioma stem cells (GSCs) were incubated with 70 μM Compound 31 or DMSO (control) for 72 hours and GSC invasion into the surrounding extracellular matrix was quantified in real time using Incucyte Cell Imager. […] GSC invasion is one of the hallmarks of glioblastoma.

[3] = system: diffuse intrinsic pontine glioma (DIPG) cells; assay: Limiting dilution assay (LDA), DIPG cell self-renewal; type: cell-based, human; conditions: clonal tumor spheres over 2 weeks
Description: A limiting dilution assay (LDA) was used to determine the effect of FTO inhibition with Compound 31 on the self-renewal ability of diffuse intrinsic pontine glioma (DIPG) cells—a type of brain tumor found in an area of the brainstem known as the pons. With this assay DIPG cells are plated on 96-well plates in various numbers (2000 cell per well down to 1 cell per well) and the ability of cells to self-renew and form clonal tumor spheres is measured over a period of 2 weeks.

FTO = FTO (Homo sapiens, UniProt Q9C0B1); assay: FTO activity assay (demethylation of m6A methylated RNA substrate); type: biochemical; conditions: for inhibition at 20 µM: read-out: reduction of FTO activity / FTO activity inhibition
Description: An FTO activity assay was performed to determine the inhibitory activity of compounds provided herein towards FTO and compare them with entacapone. This assay measures the ability of FTO to demethylate an m6A methylated RNA substrate. The assay is specific to FTO and is not affected by the function of ALKBH5, which is another RNA demethylase in eukaryotic cells.

Glioma stem cells = assay: Glioma stem cell viability, Cell Titer Glo; type: cell-based, human; conditions: 48 hours
Description: Glioma stem cells were incubated with various increasing concentrations of Compound 31 and the percentage of viable cells at 48 hours was quantified using Cell Titer Glo (Promega). […] For the functional assays described below, the IC10 was used to maintain at least 90% viability.

GSC-grafted mice = conditions: cited from earlier work
[4] = system: cancer stem cell transcripts in GSCs; assay: qPCR array for 84 cancer stem cell markers in GSCs; type: cell-based, human; conditions: 40 µM, 48 hours
Description: GSCs were treated with 40 µM entacapone for 48 hours to assess whether entacapone would affect expression of stemness-related transcripts. A qPCR array for 84 validated cancer stem cell markers was performed (Qiagen-RT-profiler PCR arrays).

Notch1 = Notch1 inhibition assay (Western Blot in GSCs); type: cell-based, human; conditions: 40 µM, 48 hours, two GSC lines
[5] = system: GSCs from two patients with glioblastoma; assay: In vitro extreme limiting dilution analysis (ELDA), GSC self-renewal; type: cell-based, human; conditions: 40 μM, 14 days, vs DMSO
Description: To examine whether treatment with Entacapone affects the ability of GSCs to self-renew, serial dilutions of GSCs were cultured from two patients with glioblastoma in the presence of 40 μM entacapone or DMSO (Control) for 14 days.

Sequence of FTO (Q9C0B1 whole entry, species assumed): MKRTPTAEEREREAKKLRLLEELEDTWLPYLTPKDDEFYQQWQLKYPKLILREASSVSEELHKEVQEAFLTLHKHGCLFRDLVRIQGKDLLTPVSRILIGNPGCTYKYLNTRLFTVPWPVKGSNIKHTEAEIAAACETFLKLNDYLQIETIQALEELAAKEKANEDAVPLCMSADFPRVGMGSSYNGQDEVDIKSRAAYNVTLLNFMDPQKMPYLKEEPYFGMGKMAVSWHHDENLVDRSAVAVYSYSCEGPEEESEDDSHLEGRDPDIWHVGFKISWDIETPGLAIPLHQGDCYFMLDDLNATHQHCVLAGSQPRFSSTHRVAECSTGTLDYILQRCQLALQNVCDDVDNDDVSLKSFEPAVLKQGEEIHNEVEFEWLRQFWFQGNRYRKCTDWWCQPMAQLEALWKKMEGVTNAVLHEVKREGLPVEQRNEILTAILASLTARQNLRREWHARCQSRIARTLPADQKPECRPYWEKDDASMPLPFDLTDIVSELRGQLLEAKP

In the case of `C=CC(=O)Nc1ccc([N+](=O)[O-])cc1` [N-(4-nitrophenyl) acrylamide], the IC50 (Hela cells) is given as 1000 µM.

With `CCN(CCSCCCF)C(=O)/C(C#N)=C/c1cc(O)c(O)c([N+](=O)[O-])c1` [Compound 31] the “DIPG invasion into surrounding extracellular matrix” value [1] was “significant inhibition of DIPG invasion”, the “GSC invasion into surrounding extracellular matrix” value ([2]; 70 μM, 72 hours, p<0.05) was “significant inhibition of GSC invasion” and the “self-renewal ability of DIPG cells” value [3] was “significantly inhibits the self-renewal ability of DIPG cells”. For the same compound, the “FTO inhibitory activity compared to entacapone” value (FTO) was “significantly higher FTO inhibitory activity compared to entacapone”, the “% FTO activity” value (FTO; 20 μM) was 54% and the inhibition at 20 µM (FTO; 20 μM) was at least 40%. For the same compound, the “% FTO activity” value (FTO; 40 μM) was 48%, the “IC10, viable cells” value (Glioma stem cells) was 70 µM and the IC50 (Glioma stem cells; Homo sapiens, read-out: IC50, viable cells) was 114 µM.

In the case of `CCOC(=O)c1ccccc1Nc1c(Cl)ccc(C)c1Cl` [ethyl ester of meclofenamic acid], the lifespan (GSC-grafted mice) is listed as “substantially prolong lifespan” and the tumor progression (GSC-grafted mice) is listed as “suppress tumor progression”.

In the case of `CCN(CCN1CC(OC)C1)C(=O)/C(C#N)=C/c1cc(O)c(O)c([N+](=O)[O-])c1` [Compound 1], the “FTO inhibitory activity compared to entacapone” value (FTO) is reported as “significantly higher FTO inhibitory activity compared to entacapone”, the “% FTO activity” value (FTO; 20 μM) is reported as 61% and the inhibition at 20 µM (FTO; 20 μM) is reported as at least 40%. The “% FTO activity” value (FTO; 40 μM) was 59%.

In the case of `CCN(CC)C(=O)/C(C#N)=C/c1cc(O)c(O)c([N+](=O)[O-])c1` [Entacapone, entacapone, reference compound], the “expression of cancer stem cell transcripts” value [4] is reported as “significant inhibition of several cancer stem cell transcripts”, the “normalized GSC invasion area” value ([2]; 40 µM, Matrigel 3D matrix, 66 hours) is reported as “inhibits invasion of GSCs” and the Notch1 protein expression (Notch1) is reported as “induces inhibition of Notch1 protein expression”. For the same compound, the “% FTO activity” value (FTO; 20 μM) was 83%, the inhibition at 20 µM (FTO; 20 μM) was under 20% and the “% FTO activity” value (FTO; 40 μM) was 61.5%^. For the same compound, the “FTO activity inhibition compared with 20 μM compound 31” value (FTO; 40 μM) was “less FTO activity inhibition than 20 UM compound 31” and the “tumor-sphere formation frequency of GSCs” value [5] was “significantly decreased the tumor-sphere formation frequency”.
